# Experimental data taken from article PMC7503370, “Cellular Signaling and Anti-Apoptotic Effects of Prolactin-Releasing Peptide and Its Analog on SH-SY5Y Cells” (International Journal of Molecular Sciences, 2020).
# System: SH-SY5Y cells
# Test: Pretreatment with peptides before MG stress, MTT cell viability
# Format: cell-based, human
# Details: 4 h pretreatment 1 × 10^−7 M, then 1.2 mM MG 16 h, n = 3, octuplicates
# Method: Figure 5 PrRP31 and its analog increased cell viability during the MG-induced stress. Pre-treatment for 4 h with PrRP31 and palm^11-PrRP31 at a concentration of: (a) 1 × 10^−5 M; or (b) 1 × 10^−7 M, followed by exposure to 1.2 mM MG for 16 h in SH-SY5Y cells. Pre-treatment for 4 h with PrRP31 and palm^11-PrRP31 at a concentration of: (c) 1 × 10^−5 M; (d) 1 × 10^−7 M in SH-SY5Y cells; or (e) 1 × 10^−5 M in rat primary neuronal culture, followed by exposure to 0.6 mM MG for 16 h in SH-SY5Y cells. MG toxicity was measured with MTT assay. Data are presented as the means ± SEM as a percentage of control cells treated with vehicle analyzed by a Student’s t-test vs. 0.6 mM MG # p < 0.5, ## p < 0.01, ### p < 0.001, #### p < 0.0001 (n = 3, each sample in octuplicates). Control vs. 0.6 mM MG analyzed by a Student´s t-test, * p < 0.5, ** p < 0.01.
# The MTT test was used to measure cell viability. The MTT reagent was dissolved in RPMI-1640 without phenol red. Cells were incubated for 2 h with a 10% solution of MTT at 37 °C. Living cells converted soluble MTT to insoluble formazan, which was subsequently dissolved in DMSO. The absorbance was measured at a wavelength of 560 nm.
# For this assay, cells were cultured in 96-well plates at a density of 40,000 cells per well. The growth medium was exchanged for serum-free DMEM 16 h before the experiment. […]
compound,measurement,value
CC[C@H](C)[C@H](NC(=O)CNC(=O)[C@H](CCCNC(=N)N)NC(=O)[C@H](CO)NC(=O)[C@H](C)NC(=O)[C@H](Cc1ccc(O)cc1)NC(=O)[C@H](Cc1c[nH]c2ccccc12)NC(=O)[C@H](C)NC(=O)[C@@H]1CCCN1C(=O)[C@H](CC(N)=O)NC(=O)[C@@H](NC(=O)[C@H](CC(=O)O)NC(=O)[C@@H]1CCCN1C(=O)[C@@H](NC(=O)[C@H](CCCNC(=N)N)NC(=O)[C@@H](NC(=O)[C@H](CCC(=O)O)NC(=O)[C@H](CCSC)NC(=O)[C@H](CO)NC(=O)[C@H](Cc1c[nH]cn1)NC(=O)[C@H](CCCNC(=N)N)NC(=O)[C@H](Cc1c[nH]cn1)NC(=O)[C@@H](NC(=O)[C@H](CCCNC(=N)N)NC(=O)[C@@H](N)CO)[C@@H](C)O)[C@@H](C)CC)[C@@H](C)O)[C@@H](C)CC)C(=O)N[C@@H](CCCNC(=N)N)C(=O)N1CCC[C@H]1C(=O)N[C@H](C(=O)NCC(=O)N[C@@H](CCCNC(=N)N)C(=O)N[C@@H](Cc1ccccc1)C(N)=O)C(C)C [PrRP31],cell viability (% of control cells),not
